From ChEMBL document CHEMBL1138128, “Phenolic P2/P3 core motif as thrombin inhibitors--design, synthesis, and X-ray co-crystal structure” (Bioorg Med Chem Lett, 2006)
pIC50: −log10 of the molar value.

Experiments:
Trypsin = Trypsin (Homo sapiens, UniProt P07477+P07478+P35030); experiment: Inhibitory activity against trypsin; assay type: protein assay
Prothrombin = Prothrombin (Homo sapiens, UniProt P00734); experiment: Inhibitory activity against thrombin

**Q.** How did the IC50 (Trypsin) turn out when `Cc1ccnc(CNC(=O)Cc2c(C)ccc(NS(=O)(=O)c3cccc(Cl)c3)c2O)c1F` was run?
**A.** The IC50 was over 44000 nM.

**Q.** And the pIC50 (Prothrombin)?
**A.** The pIC50 was 4.85.

**Q.** What does the source list for `Cc1ccnc(CNC(=O)Cc2c(C)ccc(NCS(=O)(=O)c3cccc(Cl)c3)c2O)c1F`?
**A.** IC50 (Trypsin): > 44000 nM; pIC50 (Prothrombin): 4.82

**Q.** For `Cc1ccc(S(=O)(=O)Nc2ccc(C)c(CC(=O)NCc3nccc(C)c3F)c2O)cc1Cl`, which IC50 (Trypsin) is on record?
**A.** The IC50 was over 44000 nM.

**Q.** And the pIC50 (Prothrombin)?
**A.** The pIC50 was 4.70.

**Q.** For `Cc1ccc(NS(=O)(=O)c2ccccc2)c(O)c1CC(=O)NCc1ccc(C(=N)N)cc1.Cl`, which IC50 (Trypsin) is on record?
**A.** The IC50 was 600 nM.

**Q.** And the pIC50 (Prothrombin)?
**A.** Its pIC50 is 7.01.

**Q.** Which results are given for `COc1cccc(S(=O)(=O)Nc2ccc(C)c(CC(=O)NCc3ccc(C(=N)N)cc3)c2O)c1.Cl`?
**A.** IC50 (Trypsin): 280 nM; pIC50 (Prothrombin): 7.80

**Q.** Which results are given for `Cc1ccc(NCC(=O)c2ccccc2)c(O)c1CC(=O)NCc1ccc(C(=N)N)cc1.Cl`?
**A.** IC50 (Trypsin): 4000 nM; pIC50 (Prothrombin): 5.33

**Q.** Which IC50 (Trypsin) does the source give for `Cc1ccc(NS(=O)(=O)c2cccc(C(F)(F)F)c2)c(O)c1CC(=O)NCc1ccc(C(=N)N)cc1.Cl` here?
**A.** Its IC50 is 2800 nM.

**Q.** What about the pIC50 (Prothrombin) of the same molecule?
**A.** The pIC50 was 6.92.

**Q.** Which IC50 (Trypsin) does the source give for `Cc1ccc(NCS(=O)(=O)c2ccccc2)c(O)c1CC(=O)NCc1ccc(C(=N)N)cc1.Cl` here?
**A.** Its IC50 is 3100 nM.

**Q.** And the pIC50 (Prothrombin)?
**A.** The pIC50 was 6.72.

**Q.** Which results are given for `Cc1ccc(C)c(S(=O)(=O)Nc2ccc(C)c(CC(=O)NCc3ccc(C(=N)N)cc3)c2O)c1.Cl`?
**A.** IC50 (Trypsin): 110 nM; pIC50 (Prothrombin): 7.60

**Q.** `Cc1ccc(NS(=O)(=O)c2cc(Cl)ccc2Cl)c(O)c1CC(=O)NCc1ccnc(N)c1.Cl` was tested. Which IC50 (Trypsin) did it give?
**A.** Its IC50 is over 44000 nM.

**Q.** What about the pIC50 (Prothrombin) of the same molecule?
**A.** The pIC50 was 6.00.

**Q.** For `Cc1ccc(NS(=O)(=O)c2ccc(Cl)cc2)c(O)c1CC(=O)NCc1ccc(C(=N)N)cc1.Cl`, which IC50 (Trypsin) is on record?
**A.** The IC50 was 940 nM.

**Q.** And the pIC50 (Prothrombin)?
**A.** The pIC50 was 6.89.

**Q.** `Cc1ccc(NCS(=O)(=O)c2ccccc2)c(O)c1CC(=O)NCc1ccc(N)nc1C.Cl` was tested. Which IC50 (Trypsin) did it give?
**A.** The IC50 was over 44000 nM.

**Q.** What about the pIC50 (Prothrombin) of the same molecule?
**A.** The pIC50 was 6.24.

**Q.** For `Cc1ccc(NS(=O)(=O)c2ccc(Cl)cc2F)c(O)c1CC(=O)NCc1ccc(C(=N)N)cc1.Cl`, which IC50 (Trypsin) is on record?
**A.** The IC50 was 680 nM.

**Q.** What about the pIC50 (Prothrombin) of the same molecule?
**A.** The pIC50 was 7.09.

**Q.** Which IC50 (Trypsin) does the source give for `Cc1ccc(S(=O)(=O)Nc2ccc(C)c(CC(=O)NCc3ccc(C(=N)N)cc3)c2O)cc1.Cl` here?
**A.** The IC50 was 1100 nM.

**Q.** And the pIC50 (Prothrombin)?
**A.** Its pIC50 is 6.60.

**Q.** With `Cc1ccc(NCNC(=O)c2ccccc2)c(O)c1CC(=O)NCc1ccc(C(=N)N)cc1.Cl` as the molecule, how does the IC50 (Trypsin) read?
**A.** The IC50 was 2700 nM.

**Q.** And the pIC50 (Prothrombin)?
**A.** Its pIC50 is 5.62.

**Q.** What does the source list for `Cc1ccc(NS(=O)(=O)c2cccc(Cl)c2C)c(O)c1CC(=O)NCc1ccc(N)nc1C.Cl`?
**A.** IC50 (Trypsin): > 44000 nM; pIC50 (Prothrombin): 6.72

**Q.** What does the source list for `COc1ccc(S(=O)(=O)Nc2ccc(C)c(CC(=O)NCc3ccc(C(=N)N)cc3)c2O)cc1.Cl`?
**A.** IC50 (Trypsin): 910 nM; pIC50 (Prothrombin): 7.30

**Q.** With `Cc1ccc(NS(=O)(=O)c2cccc3ccccc23)c(O)c1CC(=O)NCc1ccc(C(=N)N)cc1.Cl` as the molecule, how does the IC50 (Trypsin) read?
**A.** Its IC50 is 1100 nM.

**Q.** Which IC50 (Trypsin) does the source give for `Cc1ccccc1S(=O)(=O)Nc1ccc(C)c(CC(=O)NCc2ccc(N)nc2C)c1O.Cl` here?
**A.** Its IC50 is over 44000 nM.

**Q.** What about the pIC50 (Prothrombin) of the same molecule?
**A.** Its pIC50 is 6.59.

**Q.** With `Cc1ccc(S(=O)(=O)Nc2ccc(C)c(CC(=O)NCc3ccc(N)nc3C)c2O)cc1F.Cl` as the molecule, how does the IC50 (Trypsin) read?
**A.** The IC50 was over 44000 nM.

**Q.** What about the pIC50 (Prothrombin) of the same molecule?
**A.** Its pIC50 is 6.23.

**Q.** How did the IC50 (Trypsin) turn out when `COc1ccc(S(=O)(=O)Nc2ccc(C)c(CC(=O)NCc3ccc(C(=N)N)cc3)c2O)cc1OC.Cl` was run?
**A.** The IC50 was 340 nM.

**Q.** And the pIC50 (Prothrombin)?
**A.** Its pIC50 is 7.41.

**Q.** With `Cc1ccc(NS(=O)(=O)c2ccccc2Cl)c(O)c1CC(=O)NCc1ccnc(N)c1.Cl` as the molecule, how does the IC50 (Trypsin) read?
**A.** The IC50 was over 44000 nM.

**Q.** What about the pIC50 (Prothrombin) of the same molecule?
**A.** Its pIC50 is 5.52.
